Here are results for 1 substance from patent US6696081B2, “Carbohydrate based lipid compositions and supramolecular structures comprising same” (Duke University, priority 2000, dated 2004).

What all share (format): physicochemical
A short description of data set [1]: Modulated differential scanning calorimetry (MDSC) of hydrated lipid bilayers. How it is done: The phase-transition temperatures (Tm) of the bilayers formed by DLRPC, DMRPC and DARPC were determined by modulated differential scanning calorimetry (MDSC). […] For DARPC, the similarity in Tm was not entirely unexpected since tail—tail interactions contribute more to the Tm as the tail length increases. […] At the phase-transition temperature, the bilayer transformed from the gel-liquid crystalline phase in glycerol based phospholipids such as DLPC and DMPC. This endothermic process was observed as two discreet events. A small pre-transition peak, corresponding to the conversion from a lamellar gel (Lβ) phase to rippled gel (Pβ) phase, occurred below a much larger sharp main transition peak corresponding to conversion of the Pβ phase to the liquid crystalline Lα phase. The temperature at which the pre-transition existed as well as the enthalpy of the transition both changed as a function of tail length in a linear pattern. This presence of two well-defined phase transitions was not observed for the carbohydrate-based lipids.
Thermal Analysis of DLRPC 1-2 mgs of lipid were hermetically sealed with […] water in an aluminum pan. The modulation was set to ±1.00° C. every 40 seconds and the pan was equilibrated at −15° C. The temperature was increased at 0.5° C./min to 70° C. where the temperature was held for 2 minutes. The temperature was then reduced to −10° C. and held at this temperature for 2 minutes. This heating-cooling cycle was repeated two more times before the sample was held isothermal at −10° C. for 20 minutes. Integrating under the heat flow peak curve of the main peak provides the enthalpy of the transition. TA Instruments Universal Analysis computer program (available from TA Instruments of New Castle, Del., United States of America) was used to analyze the data. DLRPC has a Tm of 15.75° C. and an enthalpy of 3.3 kcal/mol.
The same modulated differential scanning calorimetry method used on DLRPC was employed to obtain thermotropic data on DMRPC.
The same modulated differential scanning calorimetry method used on DLRPC was employed to obtain thermotropic data on DARPC.
Background: Differential scanning calorimetry records heat flow against a reference as temperature is scanned.

Data set [2] is described as follows: Cholesterol interactions: MDSC of lipid/cholesterol mixtures. How it is done: The enthalpy was zero at 50 mol % cholesterol for DMRPC. For the glycerol-based phospholipid, cholesterol packed in the bilayer membrane with its hydroxyl group at the same level as the acyl groups. In this structural arrangement, cholesterol primarily interacted with the tails and not the head group or backbone.
For DMRPC, a slight decrease in phase-transition temperature was observed. The phase-transition temperature decreased from ˜30° C. at 0 mol % cholesterol to ˜27° C. at 35 mol % cholesterol. […] The carbohydrate backbone of DMRPC likely altered the effective hydrophobic length of the bilayer area (this DMRPC is similar to longer tail systems). There was a slight destabilization of the bilayer membrane with the incorporation of cholesterol as indicated by the decrease in phase-transition temperature. […] X-ray data on 20 mol % cholesterol/DMRPC confirmed the Lc state.

Data set [3] is described as follows: Carboxyfluorescein leakage assay of carbohydrosomes. The following applies: vesicles of 100% DMRPC (0% cholesterol). An excerpt: The following procedure is adapted from Weinstein et al. (Weinstein, et al., Self-Quenching of Carboxyfluorescein Fluorescence: Uses in Studying Liposome Stability and Liposome-Cell Interaction; Weinstein, J. N.; et al., Ed.; CRC Press, Inc.: Boca Raton, Fla., United States of Amenica 1984; Vol. 3, pp 183-204.) and was successfully used in DMPC control experiments. Immediately before use, the carbohydrate-based lipid DMRPC, was passed through a C-18 SEP PAK™ column using a solvent system of 10% MeOH/CH3CN. Both the cholesterol and DMRPC were dissolved in chloroform and mixed. The mixtures were dried by rotoevaporation in a 100 mL round bottom flask before being thoroughly dried by high vacuum. […] The size of the liposomes was determined using dynamic light scattering. […] The filtered liposomes were diluted into osmotically equivalent 20 mM PBS buffer at pH 7.4 and the fluorescence intensity was measured over time. […]
As discussed herein above, one of the most wide-spread uses of liposomes is as drug delivery vehicles in warm-blooded vertebrates, including humans. […] In this Example, release of the self-quenching dye 5(6)-carboxyfluorescein (encapsulated in 5 mg/mL) was monitored over time by preparing carboxyfluorescein-containing carbohydrosomes using the high-pressure extrusion method. […]

Values joined by “and” are separate entries in the source; they are usually repeats but may differ in a detail not shown here. Equal entries are not always repeated.

On to “methyl-2,3-di-O-myristoyl-b-D-ribo-5-phosphocholine [DMRPC]”, for which the “increase of Tm over the glycerol analog” value in data set [1] (DLRPC vs DLPC, DMRPC vs DMPC) is “approximately 6 °C”. Besides, the enthalpy of transition in data set [1] (lipid hydrated in water, MDSC) is 6.1 ± 1.0 kcal/mol and 6.1 kcal/mol; in data set [2] (50 mol % cholesterol), “zero”. In data set [1] (lipid hydrated in water, MDSC), the “phase-transition temperature (Tm) of the bilayer” value is 29.6±0.3 °C and 29 °C and 29.6 °C. Moreover, the values for the phase-transition temperature in data set [2] (0 mol % cholesterol) and in data set [2] (35 mol % cholesterol) were approximately 30 °C and approximately 27 °C, respectively. The “vesicle survival of SEPHADEX G-50 column separation” value in data set [3] is recorded as “too fragile to survive”.
